Measured values as given in US20150118221A1, “COMPOSITIONS AND METHODS FOR TREATING CARDIAC HYPERTROPHY” (THE JOHNS HOPKINS UNIVERSITY, priority 2012, published 2015).
Entries after “also recorded” stand apart in the source; their conditions may differ.

Key:
[1] = cited from earlier work
[2] = tested on: apoE−/− mice; assay: M-mode echocardiography (fractional shortening, LV mass, wall thickness) in apoE−/− mice on high fat and cholesterol diet; type: in vivo, mouse
Description: Apoliporotein E-deficient (ApoE (−/−), male aged 11 weeks were purchased from the Jackson Laboratory, Bar Harbor, Me. At the age of 12 weeks, the Apo E(−/−) mice were started on a high fat and high cholesterol diet (HFHC) consisting of 20% fat, and 1.25% cholesterol (D12108C, Research Diet Inc., New Brunswick, N.J.) for 20 to 36 weeks with and without treatment with D-PDMP (5 mg/kg, 10 mg/kg) and compared to control fed only chow diet and placebo mice fed HFHC+Vehicle (composed of 5% Tween-80 in phosphate buffered saline). Diet was rationed once a week to estimate the weekly growth rate and food intake. Physiological studies were performed around the age of 12, 20 and 36 weeks. Blood was drawn to prepare serum and heart tissues were harvested and studied at molecular and histopathological level. Tissues were harvested at 12, 20 and 36 weeks of age.
Animals were subject to physiological measurements, e.g., weight, blood pressure, ultra sound to measure fractional shortening (FS), left ventricular mass (LVM), heart weight to tibia length ratio, heart anatomy etc. A group of mice (N=5) were euthanized to obtain base line values for aorta and blood samples were collected. The rest of the mice were divided in to several groups. These were: Placebo (mice fed vehicle only (5% Tween-80 in phosphate buffered saline), 5 mpk D-PDMP solubilized in vehicle and 10 mpk D-PDMP solubilized in vehicle). Placebo and D-PDMP was delivered daily by oral gavage. The physiological measurements were repeated at 20 weeks and 36 week interval and then the mice were euthanized by asphyxia. This protocol was approved by the committee for research on animals at the Johns Hopkins University.
(§1) Trans-thoracic echocardiography was performed in conscious mice using the 2100 Visualsonic ultrasound device (Toronto, Ontario, Canada), and the Sequoia Acuson C256 (Malvern, Pa.) system, equipped with a 40 MHz and 15 MHz linear transducer, respectively. M-mode echocardiogram was obtained in the parasternal short axes view of the left ventricle (LV) at the level of the papillary muscles and at sweep speed of 200 mm/sec.
(§2) LV mass (mg): 1.055[(IVSD+LVEDD+PWTED)^3−(LVEDD)^3],

[3] = tested on: apoE−/− mice; assay: Blood pressure, CODA tail cuff system; type: in vivo, mouse
Description: (§3) Aortic pulse wave velocity (PWV) was measured with mice placed supine under anesthesia with 1.5% isoflurane. An ECG-triggered, 2-mm, 10-MHz Doppler probe was used to measure blood flow at the thoracic and abdominal aorta. PWV was calculated by the thoracic-abdominal distance divided by the pulse transit time between the thoracic and abdominal measurement sites. Blood pressure was acquired using the CODA tail cuff system (Kent Scientific Co, USA) to measure systolic and diastolic pressure. Estimated the effect of mean pressure (MP(mmHg) on PWV (m/sec) was calculated using the following equation: PWVc=0.0006(MP)^2-0.0564MP+3.9711.

[4] = tested on: apoE−/− mice; assay: Aortic pulse wave velocity (PWV), arterial stiffness; type: in vivo, mouse; conditions: 10 mpk, compared to 5 mpk D-PDMP and placebo
Description: as §3

[5] = tested on: apoE−/− mice; assay: Histology of aorta and heart tissue (wall thickening, fibrosis, plaque accumulation); type: in vivo, mouse; conditions: FIG. 5
Text: H&E, Masson's trichrome stained aorta and heart tissue was used for histological analysis for cardiovascular wall thickening and plaque accumulation.

[6] = tested on: C57Bl-6 mice subject to trans-aortic constriction; assay: M-mode echocardiography after trans-aortic constriction (TAC); type: in vivo, mouse; conditions: D-PDMP fed for a week before surgery, vs sham
Description: Normal male mice (C57B1-6), 11 weeks old, were also purchased from the Jackson Laboratory, Bar Harbor, Me.). After having measured the basal physiologic parameters such as blood pressure, weight, and ultra sound measurements, the 9 mice were divided as follows. Six mice were given 100 μL of vehicle (5% Tween-80 in phosphate—buffered saline) by oral gavage. The other three mice were fed 10 mpk of D-PDMP solubilized in vehicle. This procedure was continued for 7 days. Next, 3 mice in mice fed vehicle group and 3 mice fed D-PDMP were subject to trans-aortic constriction (Cingolani et al., 109 CIRC. RES. 00-00 (2011). At one week, two week and six weeks post-surgery, the mice were subjected to M mode ultrasound analysis. Finally, blood was drawn, and the animals were euthanized. The heart was excised, sliced in halves and its anatomy photographed.
as §1, §2

[7] = tested on: lactosylceramide synthase; assay: Lactosylceramide synthase activity in heart tissue of apoE−/− mice; type: in vivo, mouse; conditions: 5 mpk and 10 mpk, 20 weeks and 36 weeks
Description: (§4) Approximately 10 mg of heart tissue were homogenized in Tris buffer (pH 7.8) and centrifuged at 10,000 rpm for 10 min. The supernatant was used as a source for enzyme. [^3H]UDP-Gal (American Radiolabled company, St Louis, Mo.) served as the nucleotide sugar donor in LacCer synthase assay and [^3H]UDP-Glc served as the nucleotide sugar donor in GlcCer synthase assay. The details of these assays have been described previously. See Chatterjee, S., 311 METHODS IN ENZYMOLOGY 73-81 (2000). All assays were conducted in triplicate from 3 to 5 aorta samples from mice in each group.

[8] = target: T1, glucosylceramide synthase (Mus musculus, UniProt O88693); assay: Glucosylceramide synthase activity in heart tissue of apoE−/− mice; type: in vivo; conditions: 5 mpk and 10 mpk, 20 weeks and 36 weeks
T1 sequence (O88693 1-394): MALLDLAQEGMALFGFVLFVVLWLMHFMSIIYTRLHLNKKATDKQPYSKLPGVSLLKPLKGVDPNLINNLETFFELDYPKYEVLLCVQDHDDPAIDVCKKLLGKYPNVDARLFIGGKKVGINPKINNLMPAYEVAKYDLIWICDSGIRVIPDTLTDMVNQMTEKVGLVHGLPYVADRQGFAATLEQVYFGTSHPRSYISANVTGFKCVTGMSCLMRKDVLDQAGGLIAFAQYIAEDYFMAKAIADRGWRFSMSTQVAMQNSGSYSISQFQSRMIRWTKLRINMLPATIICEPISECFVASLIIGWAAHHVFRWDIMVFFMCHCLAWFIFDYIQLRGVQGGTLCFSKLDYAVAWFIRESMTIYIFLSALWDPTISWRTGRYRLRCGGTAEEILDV
Description: as §4

[9] = tested on: glycosphingolipids; assay: HPLC analysis of glycosphingolipid levels in heart tissue, apoE−/− mice; type: in vivo, mouse
Description: (§5) Approximately 10 mg of heart tissue was homogenized in chloroform-methanol (2:1, v/v) and lipids were extracted. Bligh et al., 37.8 CAN. J. BIOCHEM. AND PHYSIOL. 911-17 (1959). The total lipid extracts were dried in nitrogen and subject to deacylation using sphingosine ceramide N-deacylation.

[10] = tested on: glycosphingolipids; assay: HPLC analysis of glycosphingolipid levels in heart tissue, TAC mice; type: in vivo, mouse; conditions: mice subject to trans-aortic constriction
Description: as §5

[11] = tested on: TGFβ; assay: Western blot of TGFβ in left ventricular heart homogenates; type: in vivo, mouse; conditions: 5 mpk and 10 mpk
Description: FIG. 16. TGFβ over expression in hypertrophic mouse heart is mitigated by the use of D-PDMP. Left ventricular heart homogenates were prepared from placebo, 5 mpk and 10 mpk treated mouse hearts. Western blot analysis was done using anti TGFβ antibody. Expression levels of GAPDH were used to normalize the protein expression. Expression levels were quantified by using Image J v.1.45s (NIH, USA) software. (a) Western immunoblot of TGF-β. (b) Corresponding densitomeric scan.

[12] = tested on: oxidized -LDL; assay: Serum level of oxidized LDL in apoE−/− mice fed western diet; type: in vivo, mouse
[13] = tested on: hypertrophic marker, antioxidant and collagen gene mRNA; conditions: 10 mpk, left ventricular tissue
[14] = tested on: p44MAPK; assay: Western immunoblot of p44MAPK in heart tissue
[15] = tested on: apoE−/− mice; assay: Ultrasound imaging of aortic intima media thickening (AoIMT); conditions: for aortic intima media thickening (AoIMT): 16 and 20 week old mice
[16] = tested on: lactosylceramide synthase; assay: Lactosylceramide synthase activity in aorta tissue of D-PDMP-fed apoE−/− mice; conditions: hyperlipidemic diet; for decrease of LCS activity as compared to hyperlipidemic mouse aorta: 20 week old apoE−/− mice
[17] = target: T1, glucosylceramide synthase; assay: Glucosylceramide synthase activity in aorta tissue of D-PDMP-fed apoE−/− mice; conditions: 5 and 10 mpk, hyperlipidemic diet, HCl
[18] = HCHF fed apoE−/− mice, to base line levels
[19] = 20 Weeks, 10MPK D-PDMP + Fat, n = 5
[20] = TAC and Apo E−/− mice (high fat and cholesterol diet)

CCCCN1C[C@H](O)[C@@H](O)[C@H](O)[C@H]1CO [NB-DNJ, 1,5-(butylimino)-1,5-dideoxy-D-glucitol]
solubility in water [1]: soluble in water

CCCCCCCCCC(=O)N[C@H](CN1CCOCC1)[C@H](O)c1ccccc1.Cl [D-PDMP, D-threo-1-Phenyl-2-decanoylamino-3-morpholino-1-propanol HCl]
IVSD and PWTED wall thickness at end diastolic phase ([2]; 5-MPK D-PDMP + fat, up to 20 weeks of age): thicker | Fractional shortening (FS %) of left ventricle ([2]; 5 MPK + fat, 16 and 20 weeks of age): significant decline | Fractional shortening (FS %) vs baseline and control ([2]; 10 MPK + fat, 16 and 20 weeks): did not significantly differ from the baseline and control | IVSD and PWTED wall thickness at end diastolic phase (hypertrophied wall) ([2]; 10 MPK + fat, up to 20 weeks of age): non hypertrophied | Fractional Shortening (%) ([2]; 20 Weeks, 10MPK D-PDMP + Fat, n = 5, Mean±SEM): 61.77 ± 1.69% | fractional shortening [2, 18]: dose-dependent reversal | left ventricular mass [2, 18]: dose-dependent reversal | heart hypertrophy and dysfunction (M mode ultrasound) ([2]; hyperlipidemic diet, dose dependent manner): complete protection | Blood Pressure* (mmHg), lower value (marked ^ in Control row) [3, 19]: 75.8 ± 11.55 mmHg | Blood Pressure* (mmHg), upper value (marked ** in Control row) [3, 19]: 102.98 ± 12.34 mmHg | blood pressure ([3]; daily oral gavage, apoE−/− mice on high fat and cholesterol diet): reversed the blood pressure to normal level | arterial stiffness (PWV) [4]: reduces | fibrosis [5]: reduced | intimal wall thickness [5]: reduced | plaque accumulation [5]: reduced | fractional shortening [6]: completely reversed | left ventricular mass [6]: completely reversed | activity of lactosylceramide synthase in heart tissue [7]: dose-dependently decreased | activity of glucosylceramide synthase in heart tissue [8]: dose-dependently decreased | mass of glycosphingolipids in heart tissue [9]: inhibits | level of glycosphingolipids [10]: decreases | TGFβ over expression in hypertrophic mouse heart [11]: mitigated | increase of serum level of oxidized -LDL (about 4-fold on western diet) [12]: mitigated | Catalase mRNA expression level ([13]; TAC and Apo E−/− mice): induces | SOD1 mRNA expression level ([13]; TAC and Apo E−/− mice): induces | SOD2 mRNA expression level ([13]; TAC and Apo E−/− mice): induces | ANP mRNA expression level [13, 20]: blunted | BNP mRNA expression level [13, 20]: blunted | βMHC mRNA expression level [13, 20]: blunted | mRNA levels of collagen type II and III genes ([13]; TAC mice): decreased | solubility in water [1]: soluble in water | level of phosphorylated p44MAPK in heart tissue ([14]; 10 mpk, vs placebo): decrease | phosphorylation of p44MAPK in heart tissue ([14]; both animal models (apoE−/− and TAC)): mitigated | aortic intima media thickening (AoIMT) ([15]; 5 MPK + fat): progressively increased | aortic intima media thickening (AoIMT) ([15]; 10 MPK + fat): did not change | increase in aortic intima media thickening (IMT) caused by hyperlipidemic diet ([15]; dose not stated): reversed | activity of lactosylceramide synthase in aorta tissue ([16]; 5 and 10 mpk, apoE−/− mice, HCl): dose-dependently decreased; also recorded: completely prevented | decrease of LCS activity as compared to hyperlipidemic mouse aorta ([16]; 5 mpk D-PDMP): ~52% | decrease of LCS activity as compared to hyperlipidemic mouse aorta ([16]; 10 mpk D-PDMP): ~32% | activity of glucosylceramide synthase in aorta tissue [17]: dose-dependent decrease in glucosylceramide synthase activity was not observed; also recorded: completely prevented; also recorded: decreased
